Measured values from ChEMBL document CHEMBL1155283, “Synthesis and anabolic/androgenic evaluation of novel 9alpha-fluorosteroids” (Eur J Med Chem, 2009).
Calls of active or inactive are those of the source. No cut-off for these calls is given here.

Assays:
Type in all cases: functional, organism-based
Rattus norvegicus [1] = experiment: Anabolic activity in Wistar rat assessed as weight of levator ani muscle at 20 mg/kg of corporal weight, sc after 7 days by animal castration method; parameters: dose 20 mg/kg
Rattus norvegicus [2] = experiment: Anabolic activity in Wistar rat assessed as weight of levator ani muscle at 40 mg/kg of corporal weight, sc after 7 days by animal castration method; parameters: dose 40 mg/kg
Rattus norvegicus [3] = experiment: Androgenic activity in Wistar rat assessed as weight of seminal vesicle at 10 mg/kg of corporal weight, sc after 7 days by animal castration method; parameters: dose 10 mg/kg
Rattus norvegicus [4] = experiment: Anabolic activity in Wistar rat assessed as weight of levator ani muscle at 10 mg/kg of corporal weight, sc after 7 days by animal castration method; parameters: dose 10 mg/kg
Rattus norvegicus [5] = experiment: Androgenic activity in Wistar rat assessed as weight of prostate at 10 mg/kg of corporal weight, sc after 7 days by animal castration method; parameters: dose 10 mg/kg; conditions: Prostate gland
Rattus norvegicus [6] = experiment: Androgenic activity in Wistar rat assessed as weight of prostate at 20 mg/kg of corporal weight, sc after 7 days by animal castration method; parameters: dose 20 mg/kg; conditions: Prostate gland
Rattus norvegicus [7] = experiment: Androgenic activity in Wistar rat assessed as weight of seminal vesicle at 40 mg/kg of corporal weight, sc after 7 days by animal castration method; parameters: dose 40 mg/kg
Rattus norvegicus [8] = experiment: Androgenic activity in Wistar rat assessed as weight of prostate at 40 mg/kg of corporal weight, sc after 7 days by animal castration method; parameters: dose 40 mg/kg; conditions: Prostate gland
Rattus norvegicus [9] = experiment: Androgenic activity in Wistar rat assessed as weight of seminal vesicle at 20 mg/kg of corporal weight, sc after 7 days by animal castration method; parameters: dose 20 mg/kg

| SMILES | Activity (Rattus norvegicus [1]) | Activity (Rattus norvegicus [2]) | Activity (Rattus norvegicus [3]) | Activity (Rattus norvegicus [4]) | Activity (Rattus norvegicus [5]) | Activity (Rattus norvegicus [6]) | Activity (Rattus norvegicus [7]) | Activity (Rattus norvegicus [8]) | Activity (Rattus norvegicus [9]) |
| --- | --- | --- | --- | --- | --- | --- | --- | --- | --- |
| CC(=O)O[C@H]1CC[C@@]2(C)[C@@H](CC[C@H]3[C@@H]4CC[C@H](O)[C@@]4(C)C[C@H](O)[C@@]32F)C1 | Active | Active | inactive |  |  |  |  |  |  |
| CCC(=O)O[C@H]1CC[C@H]2[C@@H]3CC[C@H]4C[C@@H](OC(C)=O)CC[C@]4(C)[C@@]3(F)[C@@H](O)C[C@]12C | Active |  |  | Active | Active | Active |  |  |  |
| C[C@]12CC[C@H](O)C[C@@H]1CC[C@H]1[C@@H]3CCC(=O)[C@@]3(C)C[C@H](O)[C@@]12F |  |  | inactive |  | inactive | inactive | inactive | inactive | inactive |
| CCCCCCC(=O)O[C@H]1CC[C@H]2[C@@H]3CC[C@H]4C[C@@H](O)CC[C@]4(C)[C@@]3(F)[C@@H](O)C[C@]12C |  |  | inactive |  | inactive | inactive | inactive | inactive | inactive |
| CC(=O)O[C@H]1CC[C@@]2(C)[C@@H](CC[C@H]3[C@@H]4CCC(=O)[C@@]4(C)C[C@H](O)[C@@]32F)C1 | inactive | inactive | inactive | inactive |  | Active | inactive | Active | inactive |
| CC(=O)O[C@H]1CC[C@@]2(C)[C@@H](CC[C@H]3[C@@H]4CC[C@H](OC(C)=O)[C@@]4(C)C[C@H](O)[C@@]32F)C1 |  |  |  |  |  | Active |  | Active |  |
| CC(C)C(=O)O[C@H]1CC[C@H]2[C@@H]3CC[C@H]4C[C@@H](O)CC[C@]4(C)[C@@]3(F)[C@@H](O)C[C@]12C |  |  | inactive |  | Active | Active | inactive |  | inactive |
